Values belong to the compound of their own block, whether it stands above or below them.
Tests used:
Test in all cases: KINOMEscan competition binding
Details in all cases: compound 10.0 µM
PIM2 (human) = PIM2 (human) (UniProt Q9P1W9)
DMPK (human) = DMPK (human) (UniProt Q09013)
STK17B (human) = STK17B (human) (UniProt O94768)
FGFR3 (human) = FGFR3 (human) (UniProt P22607)
[1] = tested on: EGFR (human), P00533 [G719C; 746-750 del]
CLK2 (human) = CLK2 (human) (UniProt P49760)
WEE1 (human) = WEE1 (human) (UniProt P30291)
MAP3K7 (human) = MAP3K7 (human) (UniProt O43318)
MAP2K3 (human) = MAP2K3 (human) (UniProt P46734)
MYLK3 (human) = MYLK3 (human) (UniProt Q32MK0)
PIP5K1A (human) = PIP5K1A (human) (UniProt Q99755)
RIPK4 (human) = RIPK4 (human) (UniProt P57078)
DDR2 (human) = DDR2 (human) (UniProt Q16832)
MAP3K12 (human) = MAP3K12 (human) (UniProt Q12852)
PAK4 (human) = PAK4 (human) (UniProt O96013)
CDK5 (human) = CDK5 (human) (UniProt Q00535)
CDK17 (human) = CDK17 (human) (UniProt Q00537)
PHKG2 (human) = PHKG2 (human) (UniProt P15735)
CDK2 (human) = CDK2 (human) (UniProt P24941)
CSNK1A1L (human) = CSNK1A1L (human) (UniProt Q8N752)
PDGFRA (human) = PDGFRA (human) (UniProt P16234)
BMX (human) = BMX (human) (UniProt P51813)
PIM1 (human) = PIM1 (human) (UniProt P11309)
MARK3 (human) = MARK3 (human) (UniProt P27448)
PIM3 (human) = PIM3 (human) (UniProt Q86V86)
AURKB (human) = AURKB (human) (UniProt Q96GD4)
PRKAA1 (human) = PRKAA1 (human) (UniProt Q13131)
MELK (human) = MELK (human) (UniProt Q14680)
ADCK4 (human) = ADCK4 (human) (UniProt Q96D53)
[2] = tested on: EIF2AK4 KD2 (human), Q9P2K8 [S808G]
CIT (human) = CIT (human) (UniProt O14578)
SRPK3 (human) = SRPK3 (human) (UniProt Q9UPE1)
CSNK2A2 (human) = CSNK2A2 (human) (UniProt P19784)
DAPK1 (human) = DAPK1 (human) (UniProt P53355)
ACVRL1 (human) = ACVRL1 (human) (UniProt P37023)
PLK1 (human) = PLK1 (human) (UniProt P53350)
PKN2 (human) = PKN2 (human) (UniProt Q16513)
AURKC (human) = AURKC (human) (UniProt Q9UQB9)
ERBB4 (human) = ERBB4 (human) (UniProt Q15303)
CAMK1D (human) = CAMK1D (human) (UniProt Q8IU85)
LYN (human) = LYN (human) (UniProt P07948)
ITK (human) = ITK (human) (UniProt Q08881)
ITK (human), sequence (Q08881 whole entry, looked up): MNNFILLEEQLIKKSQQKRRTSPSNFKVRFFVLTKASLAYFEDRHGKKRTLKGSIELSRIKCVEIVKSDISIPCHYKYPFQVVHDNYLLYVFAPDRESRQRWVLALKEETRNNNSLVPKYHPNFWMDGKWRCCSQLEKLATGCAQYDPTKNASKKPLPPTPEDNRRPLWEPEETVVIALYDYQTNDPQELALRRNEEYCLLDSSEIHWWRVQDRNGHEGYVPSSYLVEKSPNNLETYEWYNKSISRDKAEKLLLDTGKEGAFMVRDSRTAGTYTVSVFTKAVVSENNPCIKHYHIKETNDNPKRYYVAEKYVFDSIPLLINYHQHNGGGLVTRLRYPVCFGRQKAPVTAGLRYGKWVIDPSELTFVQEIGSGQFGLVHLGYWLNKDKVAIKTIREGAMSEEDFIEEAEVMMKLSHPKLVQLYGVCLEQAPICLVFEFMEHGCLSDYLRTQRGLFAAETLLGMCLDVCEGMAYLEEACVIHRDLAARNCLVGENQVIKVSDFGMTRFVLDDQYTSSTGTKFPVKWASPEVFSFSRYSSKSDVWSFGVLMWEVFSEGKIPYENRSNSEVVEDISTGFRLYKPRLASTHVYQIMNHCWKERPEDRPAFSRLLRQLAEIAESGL

RIPK4 (human), sequence (P57078 whole entry, looked up): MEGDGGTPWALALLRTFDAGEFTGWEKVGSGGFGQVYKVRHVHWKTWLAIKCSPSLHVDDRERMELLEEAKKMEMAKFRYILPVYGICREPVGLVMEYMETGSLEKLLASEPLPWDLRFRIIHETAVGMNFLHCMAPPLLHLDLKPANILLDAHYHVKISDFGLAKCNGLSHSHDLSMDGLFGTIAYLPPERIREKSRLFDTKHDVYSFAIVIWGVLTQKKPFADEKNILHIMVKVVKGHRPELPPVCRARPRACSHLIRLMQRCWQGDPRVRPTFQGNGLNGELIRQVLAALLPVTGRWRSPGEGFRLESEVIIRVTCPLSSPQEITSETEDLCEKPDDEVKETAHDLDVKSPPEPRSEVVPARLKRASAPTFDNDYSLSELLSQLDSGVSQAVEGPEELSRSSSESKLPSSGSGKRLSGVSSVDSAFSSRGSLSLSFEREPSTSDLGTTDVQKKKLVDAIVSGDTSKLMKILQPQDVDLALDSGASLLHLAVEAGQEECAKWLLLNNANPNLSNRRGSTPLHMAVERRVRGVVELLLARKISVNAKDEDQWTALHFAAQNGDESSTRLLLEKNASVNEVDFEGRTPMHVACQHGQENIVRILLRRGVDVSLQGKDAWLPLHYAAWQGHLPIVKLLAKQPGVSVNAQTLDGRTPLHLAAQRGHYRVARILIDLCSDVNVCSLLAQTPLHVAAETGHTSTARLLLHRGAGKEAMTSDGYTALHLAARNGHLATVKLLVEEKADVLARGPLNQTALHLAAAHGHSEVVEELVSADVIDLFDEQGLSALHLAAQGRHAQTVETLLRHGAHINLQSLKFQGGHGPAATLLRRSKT
ADCK4 (human), sequence (Q96D53 whole entry, looked up): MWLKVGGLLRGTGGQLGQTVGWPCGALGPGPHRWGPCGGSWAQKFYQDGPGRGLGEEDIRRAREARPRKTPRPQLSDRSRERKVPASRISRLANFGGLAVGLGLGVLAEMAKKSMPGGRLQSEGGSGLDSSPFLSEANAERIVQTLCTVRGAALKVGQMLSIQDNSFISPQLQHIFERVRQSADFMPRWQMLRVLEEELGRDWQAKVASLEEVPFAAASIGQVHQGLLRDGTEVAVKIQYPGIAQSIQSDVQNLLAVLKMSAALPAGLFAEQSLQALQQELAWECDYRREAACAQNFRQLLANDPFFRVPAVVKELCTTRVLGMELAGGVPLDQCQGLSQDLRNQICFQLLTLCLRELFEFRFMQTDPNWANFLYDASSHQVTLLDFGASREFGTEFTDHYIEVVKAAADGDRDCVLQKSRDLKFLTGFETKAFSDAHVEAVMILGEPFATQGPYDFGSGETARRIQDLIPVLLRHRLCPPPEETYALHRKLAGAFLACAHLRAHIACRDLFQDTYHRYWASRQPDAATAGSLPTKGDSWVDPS
MYLK3 (human), sequence (Q32MK0 whole entry, looked up): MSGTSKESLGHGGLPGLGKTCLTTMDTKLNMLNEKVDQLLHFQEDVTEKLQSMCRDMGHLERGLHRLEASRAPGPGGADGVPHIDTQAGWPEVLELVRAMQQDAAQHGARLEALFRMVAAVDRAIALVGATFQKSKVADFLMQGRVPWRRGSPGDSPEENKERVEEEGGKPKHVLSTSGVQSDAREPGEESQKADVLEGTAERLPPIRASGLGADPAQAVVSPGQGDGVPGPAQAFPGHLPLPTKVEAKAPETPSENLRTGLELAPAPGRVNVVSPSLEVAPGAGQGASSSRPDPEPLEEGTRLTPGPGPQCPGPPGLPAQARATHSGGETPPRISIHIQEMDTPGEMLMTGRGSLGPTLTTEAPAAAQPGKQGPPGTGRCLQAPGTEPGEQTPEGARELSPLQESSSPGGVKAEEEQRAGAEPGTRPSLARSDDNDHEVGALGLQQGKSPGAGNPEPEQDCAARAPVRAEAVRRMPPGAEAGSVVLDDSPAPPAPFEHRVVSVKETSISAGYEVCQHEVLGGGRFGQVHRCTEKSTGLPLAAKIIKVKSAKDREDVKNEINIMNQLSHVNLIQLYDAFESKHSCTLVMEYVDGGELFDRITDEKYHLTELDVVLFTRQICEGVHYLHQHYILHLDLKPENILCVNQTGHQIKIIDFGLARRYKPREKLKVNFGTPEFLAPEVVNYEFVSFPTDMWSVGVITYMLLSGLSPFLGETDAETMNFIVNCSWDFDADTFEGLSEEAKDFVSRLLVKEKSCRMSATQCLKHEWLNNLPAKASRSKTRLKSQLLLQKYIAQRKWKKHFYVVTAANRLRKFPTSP
PHKG2 (human), sequence (P15735 whole entry, looked up): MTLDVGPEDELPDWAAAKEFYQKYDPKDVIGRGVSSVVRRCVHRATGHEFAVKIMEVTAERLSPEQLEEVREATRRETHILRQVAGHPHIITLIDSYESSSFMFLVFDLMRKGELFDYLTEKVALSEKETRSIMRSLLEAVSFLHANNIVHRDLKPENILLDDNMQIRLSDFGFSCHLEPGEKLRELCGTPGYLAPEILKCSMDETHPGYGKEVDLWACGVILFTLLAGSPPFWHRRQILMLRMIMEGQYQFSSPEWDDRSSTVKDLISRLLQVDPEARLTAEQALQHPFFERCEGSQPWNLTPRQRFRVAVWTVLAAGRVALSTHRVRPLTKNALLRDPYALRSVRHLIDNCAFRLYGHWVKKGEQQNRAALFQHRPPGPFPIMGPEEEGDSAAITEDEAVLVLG
SRPK3 (human), sequence (Q9UPE1 whole entry, looked up): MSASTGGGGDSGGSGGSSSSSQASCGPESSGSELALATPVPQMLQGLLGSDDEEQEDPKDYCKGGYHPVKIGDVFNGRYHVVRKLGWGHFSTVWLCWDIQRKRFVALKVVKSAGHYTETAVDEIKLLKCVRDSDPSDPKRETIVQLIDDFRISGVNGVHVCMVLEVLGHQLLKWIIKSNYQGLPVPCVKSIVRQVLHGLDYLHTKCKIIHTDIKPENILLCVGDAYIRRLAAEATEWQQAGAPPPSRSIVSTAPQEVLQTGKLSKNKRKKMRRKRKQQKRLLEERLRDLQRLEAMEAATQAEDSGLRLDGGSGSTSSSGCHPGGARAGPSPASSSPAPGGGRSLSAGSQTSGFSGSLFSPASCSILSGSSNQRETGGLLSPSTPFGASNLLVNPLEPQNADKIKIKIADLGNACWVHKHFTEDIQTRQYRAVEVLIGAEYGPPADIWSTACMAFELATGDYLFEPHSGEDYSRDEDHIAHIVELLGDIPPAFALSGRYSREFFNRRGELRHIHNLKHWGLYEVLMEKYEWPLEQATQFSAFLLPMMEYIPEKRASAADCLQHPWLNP
CLK2 (human), sequence (P49760 whole entry, looked up): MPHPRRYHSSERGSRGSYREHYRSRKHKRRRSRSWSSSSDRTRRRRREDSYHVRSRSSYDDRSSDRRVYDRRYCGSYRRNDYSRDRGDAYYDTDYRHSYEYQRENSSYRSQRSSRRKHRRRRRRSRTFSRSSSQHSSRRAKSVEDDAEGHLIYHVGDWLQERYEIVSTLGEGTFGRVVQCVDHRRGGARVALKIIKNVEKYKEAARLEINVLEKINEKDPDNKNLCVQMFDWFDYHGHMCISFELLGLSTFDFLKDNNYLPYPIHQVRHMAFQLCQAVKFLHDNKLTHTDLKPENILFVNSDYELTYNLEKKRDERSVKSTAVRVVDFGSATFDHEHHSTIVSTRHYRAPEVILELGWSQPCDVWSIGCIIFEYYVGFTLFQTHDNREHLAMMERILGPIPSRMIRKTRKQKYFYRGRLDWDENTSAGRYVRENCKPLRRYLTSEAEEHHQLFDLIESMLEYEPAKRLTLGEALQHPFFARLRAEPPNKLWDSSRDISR
AURKC (human), sequence (Q9UQB9 whole entry, looked up): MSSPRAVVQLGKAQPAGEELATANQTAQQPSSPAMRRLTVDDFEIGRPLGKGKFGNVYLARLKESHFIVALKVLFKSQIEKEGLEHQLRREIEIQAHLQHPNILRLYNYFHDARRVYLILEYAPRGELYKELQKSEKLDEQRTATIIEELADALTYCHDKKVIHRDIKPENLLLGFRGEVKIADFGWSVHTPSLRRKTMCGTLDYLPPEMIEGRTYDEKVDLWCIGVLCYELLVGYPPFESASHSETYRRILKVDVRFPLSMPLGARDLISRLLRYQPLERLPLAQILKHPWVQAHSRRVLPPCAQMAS

- kinase still bound, per cent of control (PIM2 (human)): 100%
- kinase still bound, per cent of control (DMPK (human)): 86%
- kinase still bound, per cent of control (STK17B (human)): 100%
- kinase still bound, per cent of control (FGFR3 (human)): 100%
- kinase still bound, per cent of control [1]: 100%
- kinase still bound, per cent of control (CLK2 (human)): 100%
- kinase still bound, per cent of control (WEE1 (human)): 99%
- kinase still bound, per cent of control (MAP3K7 (human)): 87%
- kinase still bound, per cent of control (MAP2K3 (human)): 74%
- kinase still bound, per cent of control (MYLK3 (human)): 100%
- kinase still bound, per cent of control (PIP5K1A (human)): 100%
- kinase still bound, per cent of control (RIPK4 (human)): 89%
- kinase still bound, per cent of control (DDR2 (human)): 98%
- kinase still bound, per cent of control (MAP3K12 (human)): 90%
- kinase still bound, per cent of control (PAK4 (human)): 100%
- kinase still bound, per cent of control (CDK5 (human)): 100%
- kinase still bound, per cent of control (CDK17 (human)): 100%
- kinase still bound, per cent of control (PHKG2 (human)): 78%
- kinase still bound, per cent of control (CDK2 (human)): 100%
- kinase still bound, per cent of control (CSNK1A1L (human)): 100%
- kinase still bound, per cent of control (PDGFRA (human)): 100%
- kinase still bound, per cent of control (BMX (human)): 100%
- kinase still bound, per cent of control (PIM1 (human)): 100%
- kinase still bound, per cent of control (MARK3 (human)): 100%
- kinase still bound, per cent of control (PIM3 (human)): 100%
- kinase still bound, per cent of control (AURKB (human)): 100%
- kinase still bound, per cent of control (PRKAA1 (human)): 100%
- kinase still bound, per cent of control (MELK (human)): 100%
- kinase still bound, per cent of control (ADCK4 (human)): 91%
- kinase still bound, per cent of control [2]: 100%
- kinase still bound, per cent of control (CIT (human)): 100%
- kinase still bound, per cent of control (SRPK3 (human)): 100%
- kinase still bound, per cent of control (CSNK2A2 (human)): 76%
- kinase still bound, per cent of control (DAPK1 (human)): 100%
- kinase still bound, per cent of control (ACVRL1 (human)): 100%
- kinase still bound, per cent of control (PLK1 (human)): 100%
- kinase still bound, per cent of control (PKN2 (human)): 70%
- kinase still bound, per cent of control (AURKC (human)): 74%
- kinase still bound, per cent of control (ERBB4 (human)): 100%
- kinase still bound, per cent of control (CAMK1D (human)): 100%
- kinase still bound, per cent of control (LYN (human)): 100%
- kinase still bound, per cent of control (ITK (human)): 100%
Structure (SMILES): CN1C(=O)c2ccccc2N(C)c2nc(NS(=O)(=O)c3ccc(N)cc3)ncc21

- kinase still bound, per cent of control (PIM2 (human)): 100%
- kinase still bound, per cent of control (DMPK (human)): 100%
- kinase still bound, per cent of control (STK17B (human)): 100%
- kinase still bound, per cent of control (FGFR3 (human)): 100%
- kinase still bound, per cent of control [1]: 61%
- kinase still bound, per cent of control (CLK2 (human)): 81%
- kinase still bound, per cent of control (WEE1 (human)): 92%
- kinase still bound, per cent of control (MAP3K7 (human)): 100%
- kinase still bound, per cent of control (MAP2K3 (human)): 92%
- kinase still bound, per cent of control (MYLK3 (human)): 100%
- kinase still bound, per cent of control (PIP5K1A (human)): 95%
- kinase still bound, per cent of control (RIPK4 (human)): 100%
- kinase still bound, per cent of control (DDR2 (human)): 100%
- kinase still bound, per cent of control (MAP3K12 (human)): 100%
- kinase still bound, per cent of control (PAK4 (human)): 100%
- kinase still bound, per cent of control (CDK5 (human)): 100%
- kinase still bound, per cent of control (CDK17 (human)): 100%
- kinase still bound, per cent of control (PHKG2 (human)): 15%
- kinase still bound, per cent of control (CDK2 (human)): 75%
- kinase still bound, per cent of control (CSNK1A1L (human)): 100%
- kinase still bound, per cent of control (PDGFRA (human)): 100%
- kinase still bound, per cent of control (BMX (human)): 96%
- kinase still bound, per cent of control (PIM1 (human)): 91%
- kinase still bound, per cent of control (MARK3 (human)): 98%
- kinase still bound, per cent of control (PIM3 (human)): 84%
- kinase still bound, per cent of control (AURKB (human)): 100%
- kinase still bound, per cent of control (PRKAA1 (human)): 92%
- kinase still bound, per cent of control (MELK (human)): 80%
- kinase still bound, per cent of control (ADCK4 (human)): 82%
- kinase still bound, per cent of control [2]: 100%
- kinase still bound, per cent of control (CIT (human)): 95%
- kinase still bound, per cent of control (SRPK3 (human)): 68%
- kinase still bound, per cent of control (CSNK2A2 (human)): 88%
- kinase still bound, per cent of control (DAPK1 (human)): 82%
- kinase still bound, per cent of control (ACVRL1 (human)): 100%
- kinase still bound, per cent of control (PLK1 (human)): 100%
- kinase still bound, per cent of control (PKN2 (human)): 100%
- kinase still bound, per cent of control (AURKC (human)): 86%
- kinase still bound, per cent of control (ERBB4 (human)): 88%
- kinase still bound, per cent of control (CAMK1D (human)): 99%
- kinase still bound, per cent of control (LYN (human)): 79%
- kinase still bound, per cent of control (ITK (human)): 98%
Structure (SMILES): COc1cc(N2CCN(C)CC2)ccc1Nc1ncc2c(n1)N(C)c1ccccc1N(C)C2=O

- kinase still bound, per cent of control (PIM2 (human)): 100%
- kinase still bound, per cent of control (DMPK (human)): 65%
- kinase still bound, per cent of control (STK17B (human)): 100%
- kinase still bound, per cent of control (FGFR3 (human)): 100%
- kinase still bound, per cent of control [1]: 78%
- kinase still bound, per cent of control (CLK2 (human)): 55%
- kinase still bound, per cent of control (WEE1 (human)): 100%
- kinase still bound, per cent of control (MAP3K7 (human)): 98%
- kinase still bound, per cent of control (MAP2K3 (human)): 92%
- kinase still bound, per cent of control (MYLK3 (human)): 100%
- kinase still bound, per cent of control (PIP5K1A (human)): 91%
- kinase still bound, per cent of control (RIPK4 (human)): 79%
- kinase still bound, per cent of control (DDR2 (human)): 90%
- kinase still bound, per cent of control (MAP3K12 (human)): 71%
- kinase still bound, per cent of control (PAK4 (human)): 90%
- kinase still bound, per cent of control (CDK5 (human)): 86%
- kinase still bound, per cent of control (CDK17 (human)): 94%
- kinase still bound, per cent of control (PHKG2 (human)): 68%
- kinase still bound, per cent of control (CDK2 (human)): 87%
- kinase still bound, per cent of control (CSNK1A1L (human)): 95%
- kinase still bound, per cent of control (PDGFRA (human)): 98%
- kinase still bound, per cent of control (BMX (human)): 93%
- kinase still bound, per cent of control (PIM1 (human)): 91%
- kinase still bound, per cent of control (MARK3 (human)): 88%
- kinase still bound, per cent of control (PIM3 (human)): 92%
- kinase still bound, per cent of control (AURKB (human)): 100%
- kinase still bound, per cent of control (PRKAA1 (human)): 84%
- kinase still bound, per cent of control (MELK (human)): 78%
- kinase still bound, per cent of control (ADCK4 (human)): 86%
- kinase still bound, per cent of control [2]: 100%
- kinase still bound, per cent of control (CIT (human)): 10%
- kinase still bound, per cent of control (SRPK3 (human)): 89%
- kinase still bound, per cent of control (CSNK2A2 (human)): 67%
- kinase still bound, per cent of control (DAPK1 (human)): 44%
- kinase still bound, per cent of control (ACVRL1 (human)): 100%
- kinase still bound, per cent of control (PLK1 (human)): 0.2%
- kinase still bound, per cent of control (PKN2 (human)): 100%
- kinase still bound, per cent of control (AURKC (human)): 89%
- kinase still bound, per cent of control (ERBB4 (human)): 87%
- kinase still bound, per cent of control (CAMK1D (human)): 87%
- kinase still bound, per cent of control (LYN (human)): 92%
- kinase still bound, per cent of control (ITK (human)): 90%
Structure (SMILES): COc1cc(N2CCC(O)CC2)ccc1Nc1ncc2c(n1)N1CCc3cccc(c31)C(=O)N2C
